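Test compounds were applied to cells in 96-well plates for 48 hours at 5 doses. Here, GI50 denotes the concentration required for 50% inhibition of growth.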 Activity calls are given as the source filed them. No stated cut-off is given here; in the data, active = GI50 up to about 1.1 µM and inactive = higher.
Experiments:
Assay in all cases: NCI tumour cell line growth inhibition, 48 h
NCI-H522 = tested on: NCI-H522
T47D = tested on: T47D
SNB-19 = tested on: SNB-19
SK-MEL-5 = tested on: SK-MEL-5
SK-MEL-28 = tested on: SK-MEL-28
HCC 2998 = tested on: HCC 2998
PC-3 = tested on: PC-3
HCT-116 = tested on: HCT-116
SF-539 = tested on: SF-539
HOP-92 = tested on: HOP-92
MDA-N = tested on: MDA-N
TK-10 = tested on: TK-10
DU-145 = tested on: DU-145
NCI-H226 = tested on: NCI-H226
M14 = tested on: M14
Malme-3M = tested on: Malme-3M
UO-31 = tested on: UO-31
SN12C = tested on: SN12C
SF-268 = tested on: SF-268
UACC-62 = tested on: UACC-62
SW-620 = tested on: SW-620
OVCAR-3 = tested on: OVCAR-3
A498 = tested on: A498
SR = tested on: SR
OVCAR-5 = tested on: OVCAR-5
LOX IMVI = tested on: LOX IMVI
OVCAR-8 = tested on: OVCAR-8
MDA-MB-231 = tested on: MDA-MB-231
RXF 393 = tested on: RXF 393
NCI-H460 = tested on: NCI-H460
BT-549 = tested on: BT-549
HOP-62 = tested on: HOP-62
OVCAR-4 = tested on: OVCAR-4
Hs-578T = tested on: Hs-578T
MDA-MB-435 = tested on: MDA-MB-435
CAKI-1 = tested on: CAKI-1
A549 = tested on: A549
RPMI-8226 = tested on: RPMI-8226
IGROV-1 = tested on: IGROV-1
NCI-H23 = tested on: NCI-H23
MOLT-4 = tested on: MOLT-4
MCF7 = tested on: MCF7
NCI/ADR-RES = tested on: NCI/ADR-RES
SK-OV-3 = tested on: SK-OV-3
KM12 = tested on: KM12
EKVX = tested on: EKVX
HT-29 = tested on: HT-29
SNB-75 = tested on: SNB-75
786-0 = tested on: 786-0
CCRF-CEM = tested on: CCRF-CEM
HL-60 = tested on: HL-60
UACC-257 = tested on: UACC-257
K562 = tested on: K562
ACHN = tested on: ACHN
SF-295 = tested on: SF-295
COLO 205 = tested on: COLO 205
SK-MEL-2 = tested on: SK-MEL-2
HCT-15 = tested on: HCT-15
U-251 = tested on: U-251

CCC/C=C/C=C/C(=O)OC1C(C)C2(O)C3C=C(C)C(=O)C3CC(COC(C)=O)=CC2C2C(C)(C)C12OC(=O)C(C)C (stereo unspecified)
GI50 (NCI-H522): 13.4 µM (inactive)
GI50 (T47D): 18.5 µM (inactive)
GI50 (SNB-19): 25.7 µM (inactive)
GI50 (SK-MEL-5): 1.84 µM (inactive)
GI50 (SK-MEL-28): 13 µM (inactive)
GI50 (HCC 2998): 0.329 µM (active)
GI50 (PC-3): 11.6 µM (inactive)
GI50 (HCT-116): 13.8 µM (inactive)
GI50 (SF-539): 11.7 µM (inactive)
GI50 (HOP-92): 8.81 µM (inactive)
GI50 (MDA-N): 0.29 µM (active)
GI50 (TK-10): 13.5 µM (inactive)
GI50 (DU-145): 29.6 µM (inactive)
GI50 (NCI-H226): 15.8 µM (inactive)
GI50 (M14): 14.1 µM (inactive)
GI50 (Malme-3M): 13.4 µM (inactive)
GI50 (UO-31): 15.4 µM (inactive)
GI50 (SN12C): 11 µM (inactive)
GI50 (SF-268): 13.8 µM (inactive)
GI50 (UACC-62): 11.2 µM (inactive)
GI50 (SW-620): 0.622 µM (active)
GI50 (OVCAR-3): 17.1 µM (inactive)
GI50 (A498): 1.66 µM (inactive)
GI50 (SR): 10.7 µM (inactive)
GI50 (OVCAR-5): 26.1 µM (inactive)
GI50 (LOX IMVI): 19.7 µM (inactive)
GI50 (OVCAR-8): 22.8 µM (inactive)
GI50 (MDA-MB-231): 3.92 µM (inactive)
GI50 (RXF 393): 17.5 µM (inactive)
GI50 (NCI-H460): 3.08 µM (inactive)
GI50 (BT-549): 20.7 µM (inactive)
GI50 (HOP-62): 0.0438 µM (active)
GI50 (OVCAR-4): 22.9 µM (inactive)
GI50 (Hs-578T): 0.084 µM (active)
GI50 (MDA-MB-435): 0.303 µM (active)
GI50 (CAKI-1): 0.83 µM (active)
GI50 (A549): 0.406 µM (active)
GI50 (RPMI-8226): 11.8 µM (inactive)
GI50 (IGROV-1): 16.8 µM (inactive)
GI50 (NCI-H23): 12.8 µM (inactive)
GI50 (MOLT-4): 0.966 µM (active)
GI50 (MCF7): 17.2 µM (inactive)
GI50 (NCI/ADR-RES): 21.5 µM (inactive)
GI50 (SK-OV-3): 53.1 µM (inactive)
GI50 (KM12): 16.9 µM (inactive)
GI50 (EKVX): 19.4 µM (inactive)
GI50 (HT-29): 12.1 µM (inactive)
GI50 (SNB-75): 10.3 µM (inactive)
GI50 (786-0): 9.62 µM (inactive)
GI50 (CCRF-CEM): 0.137 µM (active)
GI50 (HL-60): 0.532 µM (active)
GI50 (UACC-257): 16.7 µM (inactive)
GI50 (K562): 0.091 µM (active)
GI50 (ACHN): 9.46 µM (inactive)
GI50 (SF-295): 0.462 µM (active)
GI50 (COLO 205): 0.197 µM (active)
GI50 (SK-MEL-2): 18.4 µM (inactive)

COc1nc2c(c(=O)n1C)N(C(C)=O)C1C(N2)OCC(OC(C)=O)C1OC(C)=O (stereo unspecified)
GI50 (NCI-H522): > 10 µM (inactive)
GI50 (T47D): > 10 µM (inactive)
GI50 (SNB-19): > 10 µM (inactive)
GI50 (SK-MEL-5): > 10 µM (inactive)
GI50 (SK-MEL-28): > 10 µM (inactive)
GI50 (HCC 2998): > 10 µM (inactive)
GI50 (PC-3): > 10 µM (inactive)
GI50 (HCT-116): > 10 µM (inactive)
GI50 (SF-539): > 10 µM (inactive)
GI50 (HOP-92): > 10 µM (inactive)
GI50 (MDA-N): > 10 µM (inactive)
GI50 (TK-10): > 10 µM (inactive)
GI50 (DU-145): > 10 µM (inactive)
GI50 (NCI-H226): > 10 µM (inactive)
GI50 (M14): > 10 µM (inactive)
GI50 (Malme-3M): > 10 µM (inactive)
GI50 (UO-31): > 10 µM (inactive)
GI50 (SN12C): > 10 µM (inactive)
GI50 (SF-268): > 10 µM (inactive)
GI50 (UACC-62): > 10 µM (inactive)
GI50 (SW-620): > 10 µM (inactive)
GI50 (OVCAR-3): > 10 µM (inactive)
GI50 (A498): > 10 µM (inactive)
GI50 (SR): > 10 µM (inactive)
GI50 (OVCAR-5): > 10 µM (inactive)
GI50 (LOX IMVI): > 10 µM (inactive)
GI50 (OVCAR-8): > 10 µM (inactive)
GI50 (MDA-MB-231): > 10 µM (inactive)
GI50 (RXF 393): > 10 µM (inactive)
GI50 (NCI-H460): > 10 µM (inactive)
GI50 (BT-549): > 10 µM (inactive)
GI50 (HOP-62): > 10 µM (inactive)
GI50 (HCT-15): > 10 µM
GI50 (OVCAR-4): > 10 µM (inactive)
GI50 (Hs-578T): > 10 µM (inactive)
GI50 (MDA-MB-435): > 10 µM (inactive)
GI50 (CAKI-1): > 10 µM (inactive)
GI50 (A549): > 10 µM (inactive)
GI50 (RPMI-8226): > 10 µM (inactive)
GI50 (IGROV-1): > 10 µM (inactive)
GI50 (NCI-H23): > 10 µM (inactive)
GI50 (MOLT-4): > 10 µM (inactive)
GI50 (MCF7): > 10 µM (inactive)
GI50 (NCI/ADR-RES): > 10 µM (inactive)
GI50 (SK-OV-3): > 10 µM (inactive)
GI50 (KM12): > 10 µM (inactive)
GI50 (EKVX): > 10 µM (inactive)
GI50 (HT-29): > 10 µM (inactive)
GI50 (SNB-75): > 10 µM (inactive)
GI50 (786-0): > 10 µM (inactive)
GI50 (U-251): > 10 µM (inactive)
GI50 (CCRF-CEM): > 10 µM (inactive)
GI50 (HL-60): > 10 µM (inactive)
GI50 (UACC-257): > 10 µM (inactive)
GI50 (K562): > 10 µM (inactive)
GI50 (ACHN): > 10 µM (inactive)
GI50 (SF-295): > 10 µM (inactive)
GI50 (COLO 205): > 10 µM (inactive)
GI50 (SK-MEL-2): > 10 µM (inactive)

— ChEMBL document CHEMBL1201862, “PubChem BioAssay data set” (2004)
